Results on 14 compounds are retold here after patent EP0546013B1, “GLUCAGON ANALOGS WITH ASP-9 REPLACEMENTS OR DELETIONS” (THE ROCKEFELLER UNIVERSITY, priority 1990, dated 1997).

Ends that are not written are not given here.

The test system of assay [1] is adenylate cyclase. The conditions noted are these: measured as amides; for pA2 Value: negative logarithm of the antagonist concentration that reduces the response to 1 unit of agonist to that of 0.5 unit; for % Relative Activity: relative potency in stimulating adenylate cyclase. The method, then:
The inhibition index is the molar ratio of antagonist to agonist which reduces the biological response to one half of the value for the agonist in the absence of antagonist. It will be discussed more fully hereinafter.
Adenylate Cyclase Assay. The assay on liver membranes was performed according to Salomon et al. [Salomon, Y., Londos, C. & Rodbell, M. Anal. Biochem. 58, 541, 548 (1974)].
The purpose of the adenylate cyclase assay is to measure the ability of the compound under test to stimulate the activity of adenylate cyclase. The assays are used to measure relative potency, maximum activity and inhibition index.
The inhibition index, defined above, was determined from adenylate cyclase assays by two different protocols. • 1. A glucagon standard curve for cAMP vs glucagon concentration was established. Then another glucagon assay curve was measured in the presence of a constant amount of antagonist. […] A series of tubes were set up containing an amount of glucagon which will produce 90% of maximum response. Increasing amounts of antagonist were then added and the concentration that reduced the response to 45% of maximum was determined.

Assay [2] relates to glucagon receptor. The following applies: prior-art antagonist, background; cited from earlier work.
In assay [3] the test system is adenylate cyclase. The conditions noted are these: prior-art antagonist, background; cited from earlier work.
Assay [4] concerns another binding system in the hepatocyte membrane. The conditions noted are these: prior-art antagonist, background; cited from earlier work.

With `CSCC[C@H](NC(=O)[C@H](CC(C)C)NC(=O)[C@H](Cc1c[nH]c2ccccc12)NC(=O)[C@H](CCC(N)=O)NC(=O)[C@@H](NC(=O)[C@H](Cc1ccccc1)NC(=O)[C@H](CC(=O)O)NC(=O)[C@H](CCC(N)=O)NC(=O)[C@H](C)NC(=O)[C@H](CCCNC(=N)N)NC(=O)[C@H](CCCNC(=N)N)NC(=O)[C@H](CO)NC(=O)[C@H](CC(=O)O)NC(=O)[C@H](CC(C)C)NC(=O)[C@H](Cc1ccc(O)cc1)NC(=O)[C@H](CCCCN)NC(=O)[C@H](CO)NC(=O)[C@H](Cc1ccc(O)cc1)NC(=O)[C@@H](CC(=O)O)NC(=O)[C@H](CO)NC(=O)[C@@H](NC(=O)[C@H](Cc1ccccc1)NC(=O)[C@@H](NC(=O)CNC(=O)[C@H](CCC(N)=O)NC(=O)[C@@H](N)CO)[C@@H](C)O)[C@@H](C)O)C(C)C)C(=O)N[C@@H](CC(N)=O)C(=O)N[C@H](C(N)=O)[C@@H](C)O` [compound 10, des-His^1[D-Asp^9]], in assay [1], the “pA2 Value” stood at 5.9 and the “% Relative Activity” value is on record as less than 0.0028%.
For `CSCC[C@H](NC(=O)[C@H](CC(C)C)NC(=O)[C@H](Cc1c[nH]c2ccccc12)NC(=O)[C@H](CCC(N)=O)NC(=O)[C@@H](NC(=O)[C@H](Cc1ccccc1)NC(=O)[C@H](CC(=O)O)NC(=O)[C@H](CCC(N)=O)NC(=O)[C@H](C)NC(=O)[C@H](CCCNC(=N)N)NC(=O)[C@H](CCCNC(=N)N)NC(=O)[C@H](CO)NC(=O)[C@H](CC(=O)O)NC(=O)[C@H](CC(C)C)NC(=O)[C@H](Cc1ccc(O)cc1)NC(=O)[C@H](CCCCN)NC(=O)[C@H](CO)NC(=O)[C@H](Cc1ccc(O)cc1)NC(=O)[C@@H](CCC(=O)O)NC(=O)[C@H](CO)NC(=O)[C@@H](NC(=O)[C@H](Cc1ccccc1)NC(=O)[C@@H](NC(=O)CNC(=O)[C@H](CCC(N)=O)NC(=O)[C@@H](N)CO)[C@@H](C)O)[C@@H](C)O)C(C)C)C(=O)N[C@@H](CC(N)=O)C(=O)N[C@H](C(N)=O)[C@@H](C)O` [compound 11, des-His^1[D-Glu^9]], in assay [1], the “pA2 Value” was 5.4 and the “% Relative Activity” value is recorded as less than 0.0037%.
The matching figures for `COC(=O)CC[C@H](NC(=O)[C@H](CO)NC(=O)[C@@H](NC(=O)[C@H](Cc1ccccc1)NC(=O)[C@@H](NC(=O)CNC(=O)[C@H](CCC(N)=O)NC(=O)[C@@H](N)CO)[C@@H](C)O)[C@@H](C)O)C(=O)N[C@@H](Cc1ccc(O)cc1)C(=O)N[C@@H](CO)C(=O)N[C@@H](CCCCN)C(=O)N[C@@H](Cc1ccc(O)cc1)C(=O)N[C@@H](CC(C)C)C(=O)N[C@@H](CC(=O)O)C(=O)N[C@@H](CO)C(=O)N[C@@H](CCCNC(=N)N)C(=O)N[C@@H](CCCNC(=N)N)C(=O)N[C@@H](C)C(=O)N[C@@H](CCC(N)=O)C(=O)N[C@@H](CC(=O)O)C(=O)N[C@@H](Cc1ccccc1)C(=O)N[C@H](C(=O)N[C@@H](CCC(N)=O)C(=O)N[C@@H](Cc1c[nH]c2ccccc12)C(=O)N[C@@H](CC(C)C)C(=O)N[C@@H](CCSC)C(=O)N[C@@H](CC(N)=O)C(=O)N[C@H](C(N)=O)[C@@H](C)O)C(C)C` [compound 12, des-His^1[Glu^9-(OCH3)]]: 7.35 and 0.011%.
The like results for `CCCC[C@H](NC(=O)[C@H](CO)NC(=O)[C@@H](NC(=O)[C@H](Cc1ccccc1)NC(=O)[C@@H](NC(=O)CNC(=O)[C@H](CCC(N)=O)NC(=O)[C@@H](N)CO)[C@@H](C)O)[C@@H](C)O)C(=O)N[C@@H](Cc1ccc(O)cc1)C(=O)N[C@@H](CO)C(=O)N[C@@H](CCCCN)C(=O)N[C@@H](Cc1ccc(O)cc1)C(=O)N[C@@H](CC(C)C)C(=O)N[C@@H](CC(=O)O)C(=O)N[C@@H](CO)C(=O)N[C@@H](CCCNC(=N)N)C(=O)N[C@@H](CCCNC(=N)N)C(=O)N[C@@H](C)C(=O)N[C@@H](CCC(N)=O)C(=O)N[C@@H](CC(=O)O)C(=O)N[C@@H](Cc1ccccc1)C(=O)N[C@H](C(=O)N[C@@H](CCC(N)=O)C(=O)N[C@@H](Cc1c[nH]c2ccccc12)C(=O)N[C@@H](CC(C)C)C(=O)N[C@@H](CCSC)C(=O)N[C@@H](CC(N)=O)C(=O)N[C@H](C(N)=O)[C@@H](C)O)C(C)C` [compound 18, des - His^1 [Nle^9] glucagon amide] were, in that order, 7.6 and less than 0.0012%.
Consider “DSQGTFTSHYSKYLDSRRAQDFVQWLMNT-NH2 [compound 9, Asp^1His^9]”, for which, in assay [1], the “pA2 Value” is 6.3 and the “% Relative Activity” value is on record as less than 0.0009%.
Regarding “HSQGTFTSYSKYLDSRRAQDFVQWLMNT-NH2 [compound 2, des-Asp^9]”, in assay [1], the “pA2 Value” worked out at 7.2 and the “% Relative Activity” value was found to be 1.04%.
With “Nα- trinitrophenyl [12-homoarginine] glucagon”, the “binding to the glucagon receptor” value in assay [2] is “does bind to the glucagon receptor”. Moreover, in assay [3], the “activation of adenylate cyclase” value is reported as “without significant activation of adenylate cyclase”. Moreover, the “production of inositol trisphosphate and calcium ions” value in assay [4] was “activates another binding system in the hepatocyte membrane leading to the production of inositol trisphosphate and calcium ions”.
Consider “SQGTFTSFYSKYLDSRRAQDFVQWLMNT-NH2 [compound 19, des-His^1[Phe^9]]”, for which, in assay [1], the “pA2 Value” was 6.2 and the “% Relative Activity” value is on record as less than 0.0003%.
The matching figures for “SQGTFTSGYSKYLDSRRAQDFVQWLMNT-NH2 [compound 15, des - His^1 [Gly^9] glucagon amide]”: 6.24 and less than 0.006%.
Turning to “SQGTFTSHYSKYLDSRRAQDFVQWLMNT-NH2 [compound 17, des-His^1[His^9]]”, in assay [1], the “pA2 Value” is listed as 7.0 and the “% Relative Activity” value is 0.011%.
Turning to “SQGTFTSKYSKYLDSRRAQDFVQWLMNT-NH2 [compound 16, des - His^1 [Lys^9] glucagon amide]”, in assay [1], the “pA2 Value” is recorded as 7.35 and the “% Relative Activity” value was less than 0.0012%.
For the compound “SQGTFTSNYSKYLDSRRAQDFVQWLMNT-NH2 [compound 13, des-His^1[Asn^9]]”, in assay [1], the “pA2 Value” stood at 6.52 and the “% Relative Activity” value is given as less than 0.0026%.
For “SQGTFTSQYSKYLDSRRAQDFVQWLMNT-NH2 [compound 14, des-His^1[Gln^9]]”, in assay [1], the “pA2 Value” was found to be 8.21 and the “% Relative Activity” value was less than 0.003%.
For “SQGTFTSYSKYLDSRRAQDFVQWLMNT-NH2 [compound 20, des-His^1des-Asp^9]”, in assay [1], the “pA2 Value” is 5.5 and the “% Relative Activity” value is on record as less than 0.0022%.
